Counter-ions that a name gives are not always drawn.
What was measured:
human or animal plasma [1] = assay: Anticoagulation determination in plasma: thrombin time (TT); format: biochemical; settings: concentration doubling thrombin time
Method: (§1) Dog plasma and rat plasma is obtained from conscious mixed-breed hounds (either sex, Hazelton-LRE, Kalamazoo, Michigan, U.S.A.) or from anesthetized male Sprague-Dawley rats (Harlan Sprague-Dawley, Inc., Indianapolis, Indiana, U.S.A.) by venipuncture into 3.8 percent citrate. Fibrinogen is prepared from in-date ACD human blood as the fraction I-2 according to previous procedures and specifications. Smith, Biochem. J., 185, 1-11 (1980); and Smith, et al., Biochemistry, 11, 2958-2967 (1972). Human fibrinogen is also purchased as 98 percent pure/plasmin free from American Diagnostica, Greenwich, Connecticut. Coagulation reagents ACTIN, Thromboplastin, and Human plasma are from Baxter Healthcare Corp., Dade Division, Miami, Florida. Bovine thrombin from Parke-Davis (Ann Detroit, Michigan) is used for coagulation assays in plasma.
(§2) Coagulation assay procedures are as previously described. Smith, et al., Thrombosis Research, 50, 163-174 (1988). A CoAScreener coagulation instrument (American LABor, Inc.) is used for all coagulation assay measurements. The prothrombin time (PT) is measured by adding 0.05 mL saline and 0.05 mL Thromboplastin-C reagent to 0.05 mL test plasma. The activated partial thromboplastin time (APTT) is measured by incubation of 0.05 mL test plasma with 0.05 mL Actin reagent for 120 seconds followed by 0.05 mL CaCl2 (0.02 M). The thrombin time (TT) is measured by adding 0.05 mL saline and 0.05 mL thrombin (10 NIH units/mL) to 0.05 mL test plasma. The compounds of Formula I are added to human or animal plasma over a wide range of concentrations to determine prolongation effects on the APTT, PT, and TT assays. Linear extrapolations are performed to estimate the concentrations required to double the clotting time for each assay.

human or animal plasma [2] = assay: Anticoagulation determination in plasma: prothrombin time (PT); format: biochemical; settings: concentration doubling prothrombin time
Method: as §1, §2

human or animal plasma [3] = assay: Anticoagulation determination in plasma: activated partial thromboplastin time (APTT); format: biochemical; settings: concentration doubling activated partial thromboplastin time
Method: as §1, §2

Trypsin = molecular target: T1, Trypsin (Bos taurus, UniProt P00760); assay: biochemical; set-up: species or system Bovine; settings: read-out: Kass Trypsin (converted)
T1 sequence (P00760 24-246): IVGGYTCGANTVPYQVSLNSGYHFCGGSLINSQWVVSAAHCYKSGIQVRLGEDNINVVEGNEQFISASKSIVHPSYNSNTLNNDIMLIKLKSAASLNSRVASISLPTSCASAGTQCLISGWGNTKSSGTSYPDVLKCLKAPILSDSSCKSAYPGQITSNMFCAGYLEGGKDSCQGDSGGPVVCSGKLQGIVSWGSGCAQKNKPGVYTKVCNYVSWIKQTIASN
Method: By substantially following the procedures described above for human thrombin, and using other human blood coagulation system serine proteases and proteases of the fibrinolytic system with the appropriate chromogenic substrates, identified below, selectivity of the compounds of the present invention with respect to the coagulation factor serine proteases and with respect to the fibrinolytic system serine proteases are evaluated as well as their substantial lack of interference with serine proteases of the fibrinolytic system. Thrombin inhibitors preferably should spare fibrinolysis induced by urokinase, tissue plasminogen activator (t-PA) and streptokinase. This would be important to the therapeutic use of such agents as an adjunct to streptokinase, t-PA or urokinase thrombolytic therapy and to the use of such agents as an endogenous fibrinolysis-sparing (with respect to t-PA and urokinase) antithrombotic agent. In addition to the lack of interference with the amidase activity of the fibrinolytic proteases, such fibrinolytic system sparing can be studied by the use of human plasma clots and their lysis by the respective fibrinolytic plasminogen activators.
Human factors X, Xa, IXa, XIa, and XIIa are purchased from Enzyme Research Laboratories, South Bend, Indiana; human urokinase from Leo Pharmaceuticals, Denmark; and recombinant activated Protein C (aPC) is prepared at Eli Lilly and Co. substantially according to U.S. Patent 4,981,952. Chromogenic substrates: N-Benzoyl-Ile-Glu-Gly-Arg-p-nitroanilide (for factor Xa); N-Cbz-D-Arg-Gly-Arg-p-nitroanilide (for factor IXa assay as the factor Xa substrate); Pyroglutamyl-Pro-Arg-p-nitroanilide (for Factor XIa and for aPC); H-D-Pro-Phe-Arg-p-nitroanilide (for factor XIIa); and Pyroglutamyl-Gly-Arg-p-nitroanilide (for urokinase); are purchased from KabiVitrum, Stockholm, Sweden, or from Midwest Biotech, Fishers, Indiana. Bovine trypsin is purchased from Worthington Biochemicals, Freehold, New Jersey, and human plasma kallikrein from Kabi Vitrum, Stockholm, Sweden. Chromogenic substrate H-D-Pro-Phe-Arg-p-nitroanilide for plasma kallikrein is purchased from Kabi Vitrum, Stockholm, Sweden. N-Benzoyl-Phe-Val-Arg-p-nitroanilide, the substrate for human thrombin and for trypsin, is synthesized according to procedures described above for the compounds of the present invention, using known methods of peptide coupling from commercially available reactants or purchased from Midwest Biotech, Fishers, Indiana.

Human Thrombin = Human Thrombin (Homo sapiens, UniProt P00734); assay: biochemical; settings: read-out: Kass Human Thrombin (converted)

Structure (SMILES) | Human Plasma Anticoagulation 2x Clotting time (ng/mL) TT (human or animal plasma [1]) | Human Plasma Anticoagulation 2x Clotting time (ng/mL) PT (human or animal plasma [2]) | Human Plasma Anticoagulation 2x Clotting time (ng/mL) APTT (human or animal plasma [3]) | Kd (Trypsin) [nM] | Kd (Human Thrombin) [nM]
Nc1cc(CCNC(=O)[C@@H]2CCCN2C(=O)[C@@H](CC2CCCCC2)NCC(=O)O)ccn1 [Example 76, HO2CCH2-D-Cha-Pro-4-NHCH2CH2-2-aminopyridine·HCl] | 29 ng/mL | 560 ng/mL | 490 ng/mL | 2780 | 83.3
N=C(N)c1ccc(CNC(=O)[C@@H]2CCCN2C(=O)[C@@H](CC2CCCCC2)NCC(=O)O)s1 [Example 65] | 1 ng/mL |  |  | 1.75 | 
Nc1cc(CNC(=O)[C@@H]2CCCN2C(=O)[C@@H](CC2CCCCC2)NCC(=O)O)ccn1 [Example 73, HO2CCH2-D-Cha-Pro-4-NHCH2-2-aminopyridine·HCl] | 21 ng/mL | 330 ng/mL | 340 ng/mL |  | 35.7
N=C(N)c1ccc(CNC(=O)[C@@H]2CCCN2C(=O)[C@@H](CC2CCCCC2)NCC(=O)O)nn1 [Example 69, HO2CCH2-D-Cha-Pro-3-NHCH2-6-amidinopyridazine·HCl] | 5. ng/mL | 220 ng/mL | 110 ng/mL | 270 | 2.94
Nc1ccc(CCNC(=O)[C@@H]2CCCN2C(=O)[C@@H](CC2CCCCC2)NCC(=O)O)cc1 [Example 63, HO2CCH2-D-Cha-Pro-4-NHCH2CH2C6H4NH2·HCl] | 680 ng/mL |  |  |  | 3230
CCS(=O)(=O)N[C@H](CC1CCCCC1)C(=O)N1CCC[C@H]1C(=O)NCc1ccc(C(=N)N)cc1 [Example 80, EtSO2-D-Cha-Pro-4-NHCH2C6H4C(NH)NH2·HCl] | 4 ng/mL | 130 ng/mL | 40 ng/mL | 11.1 | 0.588
CCS(=O)(=O)N[C@H](CC1CCCCC1)C(=O)N1CCC[C@H]1C(=O)NCc1ccc(CN)cc1 [Example 81, EtSO2-D-Cha-Pro-4-NHCH2C6H4CH2NH2·HCl] | 110 ng/mL | 2,700 ng/mL | 1,500 ng/mL | 476 | 189
CCS(=O)(=O)N[C@H](CC1CCCCC1)C(=O)N1CCC[C@H]1C(=O)NCc1ccc(N)nc1 [Example 84, EtSO2-D-Cha-Pro-5-NHCH2-2-aminopyridine·HCl] | 110 ng/mL | 1,900 ng/mL | 1,500 ng/mL | 14300 | 345
N=C(N)N1CC=C(CNC(=O)[C@@H]2CCCN2C(=O)[C@@H](CC2CCCCC2)NCC(=O)O)CC1 [Example 70, HO2CCH2-D-Cha-Pro-4-NHCH2-1-amidino-3,4-dehydro-piperidine·HCl] | 2 ng/mL | 180 ng/mL | 160 ng/mL | 102 | 2.33
CCS(=O)(=O)N[C@H](Cc1ccccc1)C(=O)N1CCC[C@H]1C(=O)NCCc1cccc(NC(=N)N)c1 [Example 37, EtSO2-D-Phe-Pro-m-NHCH2CH2C6H4NHC(NH)NH2·HCl] | >9,000 ng/mL | >9,000 ng/mL | >9,000 ng/mL | > 111000 | 50000
NCC1CCC(CNC(=O)[C@@H]2CCCN2C(=O)[C@@H](CC2CCCCC2)NCC(=O)O)CC1 (stereo partly drawn) [Example 79, HO2CCH2-D-Cha-Pro-4-NHCH2C6H10CH2NH2·HCl] | 140 ng/mL | 2,400 ng/mL | 1,700 ng/mL | 4170 | 500
Nc1ccc(CNC(=O)[C@@H]2CCCN2C(=O)[C@@H](CC2CCCCC2)NCC(=O)O)cc1 [Example 62, HO2CCH2-D-Cha-Pro-4-NHCH2C6H4NH2·HCl] | 54 ng/mL |  |  |  | 132
Nc1ccc(CNC(=O)[C@@H]2CCCN2C(=O)[C@@H](CC2CCCCC2)NCC(=O)O)cc1F [Example 77, HO2CCH2-D-Cha-Pro-4-NHCH2-2-F-aniline·HCl] | 53 ng/mL | 890 ng/mL | 1,600 ng/mL |  | 90.9
N=C(N)C1CCC(CNC(=O)[C@@H]2CCCN2C(=O)[C@@H](CC2CCCCC2)NCC(=O)O)NC1 (stereo partly drawn) [Example 67, HO2CCH2-D-Cha-Pro-2-NHCH2-5-amidinopiperidine·HCl] | 34. ng/mL | 1,300 ng/mL | 1,800 ng/mL |  | 90.9
CS(=O)(=O)CC(=O)N[C@H](CC1CCCCC1)C(=O)N1CCC[C@H]1C(=O)NCc1ccc(C(=N)N)cc1 [Example 92, MeSO2CH2CO-D-Cha-Pro-p-NHCH2C6H4C(NH)NH2·HCl] | 8.9 ng/mL | 340 ng/mL | 210 ng/mL | 130 | 7.69
CCS(=O)(=O)N[C@H](CC1CCCCC1)C(=O)N1CCC[C@H]1C(=O)NCc1ccc(N)cc1F [Example 82, EtSO2-D-Cha-Pro-4-NHCH2-3-F-C6H3NH2·HCl] | 130 ng/mL | 3,000 ng/mL | 3,800 ng/mL |  | 200
N=C(N)C1=CNC(CNC(=O)[C@@H]2CCCN2C(=O)[C@@H](CC2CCCCC2)NCC(=O)O)CC1 (stereo partly drawn) [Example 68, HO2CCH2-D-Cha-Pro-2-NHCH2-5-amidino-5,6-dehydro-piperidine·HCl] | 4. ng/mL | 190 ng/mL | 49 ng/mL |  | 1.67
Nc1ccc(CCNC(=O)[C@@H]2CCCN2C(=O)[C@@H](CC2CCCCC2)NCC(=O)O)cn1 [Example 75, HO2CCH2-D-Cha-Pro-5-NHCH2CH2-2-aminopyridine·HCl] |  |  |  |  | 2220
Nc1ccc(CNC(=O)[C@@H]2CCCN2C(=O)[C@@H](CC2CCCCC2)NCC(=O)O)cn1 [Example 74, HO2CCH2-D-Cha-Pro-5-NHCH2-2-aminopyridine·HCl] | 20 ng/mL | 350 ng/mL | 420 ng/mL |  | 34.5
